A short description of data set [1]: Rat pharmacokinetic study. The note with it: rats; for bioavailability: intravenous 1-2 mg/kg, oral 2-40 mg/kg. The format is in vivo. The method, then:
In the rat pharmacokinetic study, a group of rats (three rats) were injected intravenously with 1-2 mg/kg, and the second group of rats (three rats) were orally administered 2-40 mg/kg at 7 time points (0.25, 0.5, 1, 2, 4, 8, 16 hours) of the quinazoline derivative (I) of the present invention. Take blood to measure the concentration of the quinazoline derivative (I) of the present invention in the blood, and calculate the peak area and half-life. The calculation method of bioavailability is: (peak area of drug oral/oral dose)/(peak area of drug intravenous injection/intravenous dose)×100%.

Data set [2] is described as follows: TGA/DSC behaviour during heating. Type of data set: physicochemical. The following applies: heating process; for weight loss during heating (TGA): FIG. 23A; for stability of crystal form during heating (DSC): FIG. 23B.
Data set [3] in a line: Blood-brain barrier penetration in rats. The note with it: oral, four hours after administration. The format is in vivo, rat. The method, then: To determine whether the quinazoline derivative (I) can cross the blood-brain barrier (BBB), the test compound was administered to rats orally. Four hours after the administration, the rats were killed, blood and brain tissue were collected, and the concentration of the test compound was analyzed. Brain penetration is defined as the ratio of the concentration of the compound in brain tissue to the concentration in plasma. Crossing the blood-brain barrier is the ratio of the free concentration of the drug in the brain tissue to the free concentration of the drug in the plasma. P-glycoprotein is an efflux protein of the blood-brain barrier, which discharges the P-glycoprotein substrate […]. Breast cancer resistance protein is an efflux protein from the blood-brain barrier, which excretes […].

The test system of data set [4] is PC-9 tumor cell (EGFR Del 19 mutation). The data set can be described thus: CellTiter-Glo cell viability, PC-9 tumor cells. The format is cell-based. The note with it: 72 hours, read-out: Inhibition of growth of PC-9 tumor cell (EGFR Del 19 mutation), IC50. The procedure: (§1) Add 100 microliters of CellTiter-Glo reagent to each well and mix on an orbital shaker for 2 minutes to induce cell lysis. The plate was incubated at room temperature for 10 minutes to stabilize the luminescence signal. The luminescence signal was recorded on the TECAN Infinite M1000 Pro instrument.
(In general: In ATP-based viability assays light output follows the ATP content of the culture.)

In data set [5] the test system is Glioma PDX with EGFRVIII mutation. Briefly: CellTiter-Glo cell viability, glioma tumor cells. Type of data set: cell-based. The procedure: as §1
The next data set addresses EGFRV3 (EGFRVIII) (Homo sapiens, UniProt P00533, DELINS30-297G). The data set can be described thus: Western blot of […] phosphorylation. Type of data set: cell-based. The following applies: FIG. 21. An excerpt: FIG. 21 is a schematic diagram of the inhibition of […] phosphorylation by quinazoline derivatives of the present invention;
It can be seen from Table 22 that the quinazoline derivative (I) with the configuration of R according to the present invention has unexpected […] mutation activity, which is >100 times higher activity than the enantiomer activity while has similar biological activity for EGFR Del 19 activating mutation.

The target of a further data set is P-glycoprotein (Homo sapiens, UniProt P08183). Briefly: P-gp efflux substrate. The format is in vitro ADME.
For a further data set, the target named is EGFR enzyme (Homo sapiens, UniProt P00533). Briefly: EGFR enzyme inhibition mechanism (ADP-Glo, ATP titration). Type of data set: biochemical. The following applies: ATP diluted from 600 uM, EGFR 0.4 nM to 0.0125 nM; FIG. 24. The procedure: In the experiment of the quinazoline derivative (I) of the present invention on the mechanism of inhibiting EGFR, the EGFR enzyme was added to the 384-well plate from 6 concentrations diluted in equal proportions (2 times) of 0.4 nM to 0.0125 nM and 0 concentration in polyE4Y1 solution, incubate for 15 minutes, add 7 concentrations of ATP diluted from 600 uM in equal proportions (2 times) to react for 60 minutes, add ADP-Glo reagent and detection reagent for 40 minutes to measure RLU signal. […] The benefits of this mechanism of action are obvious. The quinazoline derivative (I) of the present invention has this mechanism of action, showing high activity and high selectivity, and has the characteristics of small side effects and resistance to drug resistance.

Data set [6] has as its system patient primary brain tumor tissue with EGFRVIII mutation. Briefly: Subcutaneous PDX mouse model of glioma with […] mutation. Type of data set: in vivo. The note with it: orally, twice a day, three weeks. The method, then:
The patient's primary tumor tissue (brain tumor) was implanted under the skin of the mouse, and the tumor grew to about 150 cubic millimeters, and the medication was started for three weeks. […] The second group of quinazoline derivatives (I) single agent, 3 mg/kg, orally, twice a day, the third group of quinazoline derivatives (I) single agent, 10 mg/kg, orally, two times a day, the fourth group of quinazoline derivatives (I) is a single agent, 20 mg/kg, orally, twice a day.

Data set [7] deals with T1, Breast cancer resistance protein (BCRP) (Homo sapiens, UniProt Q9UNQ0).
T1 sequence (Q9UNQ0 1-655): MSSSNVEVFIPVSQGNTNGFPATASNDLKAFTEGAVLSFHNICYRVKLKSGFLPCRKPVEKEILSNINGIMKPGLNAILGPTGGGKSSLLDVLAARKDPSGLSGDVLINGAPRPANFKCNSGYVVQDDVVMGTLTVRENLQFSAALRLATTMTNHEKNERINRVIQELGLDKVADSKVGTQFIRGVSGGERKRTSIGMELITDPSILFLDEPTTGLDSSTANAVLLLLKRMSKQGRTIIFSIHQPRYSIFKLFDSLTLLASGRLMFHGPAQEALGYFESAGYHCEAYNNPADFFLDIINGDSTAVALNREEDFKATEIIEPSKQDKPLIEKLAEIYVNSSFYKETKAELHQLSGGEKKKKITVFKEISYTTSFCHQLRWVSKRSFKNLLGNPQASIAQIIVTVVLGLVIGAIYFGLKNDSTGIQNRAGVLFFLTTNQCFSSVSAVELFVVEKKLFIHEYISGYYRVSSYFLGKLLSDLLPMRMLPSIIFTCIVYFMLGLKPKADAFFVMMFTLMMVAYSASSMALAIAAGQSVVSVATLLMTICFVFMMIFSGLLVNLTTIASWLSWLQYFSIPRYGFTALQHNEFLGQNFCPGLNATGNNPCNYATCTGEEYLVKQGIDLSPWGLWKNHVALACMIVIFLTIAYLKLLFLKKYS
The data set can be described thus: BCRP efflux substrate. Type of data set: in vitro ADME.

The nature of data set [8]: Equilibrium solubility in water. The format is physicochemical. The following applies: room temperature, 24 hours, listed as quinazoline derivative (I) free base. The method, then: Experimental method: Weigh about 10 mg of solid sample (free base and various salt forms and crystal forms), add 1.5 mL of water, and after equilibrate at room temperature for 24 hours, take out 0.3 mL of turbid solution, and centrifuge to separate the lower solid and supernatant. After the supernatant was filtered through a 0.45 μm (PTFE) filter, the concentration of free alkali was tested.

Setting [9] is: listed as quinazoline derivative fumarate salt.
Setting [10] is: listed as quinazoline derivatives (I).

Data on three compounds can be found in patent publication US20250282752A1, “Quinazoline Derivative Salt Crystal Form, Preparation Method and Application” (WEISHANG (SHANGHAI) BIO-PHARMACEUTICAL CO., LTD., priority 2018, published 2025).

SMILES strings stand for the structures. Counter-ions that a name gives are not always drawn. Like-named read-outs stand apart in the source and are kept apart here.

P-glycoprotein, sequence (P08183 whole entry): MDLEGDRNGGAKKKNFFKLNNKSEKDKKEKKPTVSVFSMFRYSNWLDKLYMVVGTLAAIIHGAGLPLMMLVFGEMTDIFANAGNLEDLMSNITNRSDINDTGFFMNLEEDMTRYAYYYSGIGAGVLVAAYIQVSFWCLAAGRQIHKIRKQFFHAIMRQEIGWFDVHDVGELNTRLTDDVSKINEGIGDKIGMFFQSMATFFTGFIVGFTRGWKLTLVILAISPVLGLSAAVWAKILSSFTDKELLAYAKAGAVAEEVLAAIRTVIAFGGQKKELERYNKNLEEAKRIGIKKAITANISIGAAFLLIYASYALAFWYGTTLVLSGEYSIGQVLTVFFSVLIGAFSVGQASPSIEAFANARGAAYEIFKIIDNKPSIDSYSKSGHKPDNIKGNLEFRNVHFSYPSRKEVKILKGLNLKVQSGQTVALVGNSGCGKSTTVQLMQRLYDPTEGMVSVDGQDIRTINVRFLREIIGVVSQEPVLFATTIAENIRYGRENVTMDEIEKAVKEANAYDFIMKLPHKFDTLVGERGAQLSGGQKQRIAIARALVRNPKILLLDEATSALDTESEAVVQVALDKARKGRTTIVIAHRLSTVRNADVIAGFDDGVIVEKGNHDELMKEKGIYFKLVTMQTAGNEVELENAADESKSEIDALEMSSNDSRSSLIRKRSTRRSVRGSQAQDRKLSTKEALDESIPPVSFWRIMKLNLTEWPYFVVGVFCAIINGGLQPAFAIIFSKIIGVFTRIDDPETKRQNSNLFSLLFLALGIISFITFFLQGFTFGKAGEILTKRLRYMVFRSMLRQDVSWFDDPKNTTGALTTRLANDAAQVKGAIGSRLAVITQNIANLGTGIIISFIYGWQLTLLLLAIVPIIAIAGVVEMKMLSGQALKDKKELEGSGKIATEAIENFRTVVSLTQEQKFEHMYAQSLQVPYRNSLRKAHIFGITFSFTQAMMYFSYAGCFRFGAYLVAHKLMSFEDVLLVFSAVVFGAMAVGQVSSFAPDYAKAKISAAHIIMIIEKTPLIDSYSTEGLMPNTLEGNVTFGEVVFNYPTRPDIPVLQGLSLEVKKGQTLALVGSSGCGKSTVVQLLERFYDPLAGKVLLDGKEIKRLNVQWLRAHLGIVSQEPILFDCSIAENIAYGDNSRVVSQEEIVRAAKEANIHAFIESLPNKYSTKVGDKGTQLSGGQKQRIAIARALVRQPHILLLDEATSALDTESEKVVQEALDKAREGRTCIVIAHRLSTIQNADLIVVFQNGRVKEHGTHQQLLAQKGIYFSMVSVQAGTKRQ

Consider `C#Cc1cccc(Nc2ncnc3cc(OC)c(O[C@@H]4CCN(C)CC4(F)F)cc23)c1F` [Hydrochloride crystal form B, (R)-6-[(3,3-difluoro-1-methylpiperidin-4-yl)oxy]-N-(3-Ethynyl-2-fluorophenyl)-7-methoxyquinazolin-4-amine], for which, in [1] (rat, blood, po, read-out: bioavailability), the bioavailability was more than 60%.

For `C#Cc1cccc(Nc2ncnc3cc(OC)c(O[C@@H]4CCN(C)CC4(F)F)cc23)c1F` [fumarate crystal form A, (R)-6-[(3,3-difluoro-1-methylpiperidin-4-yl)oxy]-N-(3-Ethynyl-2-fluorophenyl)-7-methoxyquinazolin-4-amine], in data set [2], the “weight loss during heating (TGA)” value is listed as “no significant weight loss” and the “stability of crystal form during heating (DSC)” value is “good stability”. Besides, in [2] (setting [9]), the “weight loss during heating (TGA)” value was “without significant weight loss” and the “stability of crystal form during heating (DSC)” value is listed as “the crystal form is stable during heating”. Moreover, the half-life in data set [1] (rat, blood) was 7.4 h. Also, the bioavailability in [1] worked out at 80%.

Take `C#Cc1cccc(Nc2ncnc3cc(OC)c(O[C@@H]4CCN(C)CC4(F)F)cc23)c1F` [quinazoline derivative (I), (R)-6-[(3,3-difluoro-1-methylpiperidin-4-yl)oxy]-N-(3-Ethynyl-2-fluorophenyl)-7-methoxyquinazolin-4-amine]: in data set [3] (setting [10]), the “Blood brain barrier penetration rate (free concentration in brain tissue / free concentration in plasma)” value was more than 50%. The Kp at 4 h in data set [3] (rat, brain tissue / plasma (free concentrations), read-out: Blood brain barrier penetration rate (free concentration in brain tissue / free concentration in plasma)) is more than 0.5. Moreover, the IC50 in data set [4] was determined as 8 nM; in [5] (read-out: Inhibition of growth of Glioma PDX with EGFRVIII mutation, IC50, 72 hours, CellTiter-Glo), 10 nM. Also, the “EGFRVIII mutation activity relative to the enantiomer” value in data set [5] (R configuration vs S enantiomer) is more than 100 times. The “phosphorylation of EGFRV3” value on EGFRV3 (EGFRVIII) is “inhibited”. Further, the P-gp efflux substrate entry on P-glycoprotein is “not a P-glycoprotein or BCRP substrate”; at P-glycoprotein (setting [10]), “no”. On EGFR enzyme, the “mechanism of inhibiting EGFR” value is given as “non-ATP competition mechanism”. Moreover, in data set [6] (20 mg/kg), the tumor reduction entry is recorded as “caused tumor reduction”. Also, in data set [6] (3, 10 and 20 mg/kg, FIG. 22), the “inhibition of tumor growth vs control group” value is reported as “good inhibition of tumor growth”. In addition, the figures for the BCRP efflux substrate result in data set [7] and in [7] (setting [10]) were “not a P-glycoprotein or BCRP substrate” and “no”, respectively. For the same compound, in [8], the “equilibrium solubility in water” value was less than 5 µg/mL.

The bioavailability is dose-corrected exposure relative to a reference, in per cent. As a reminder, the half-life is the time needed for the level to fall by half in the phase considered. Higher therefore signals slow decline. Usually IC50 stands for the concentration that inhibits the measured activity by half.
